What was measured:
[1] = tested on: caspase-3, PARP, BRCA-1, HSF1, mutant p53, Notch1, Jagged1 in MDA-MB-231 cells; assay: Western blot, MDA-MB-231; assay type: cell-based; details: 24-hour or 48-hour treatment
[2] = tested on: MDA-MB-231 cells; assay: Cell cycle analysis, MDA-MB-231; assay type: cell-based; details: 4 and 8 μM; 24-hour treatment
[3] = In vitro metabolism, rat liver microsomes; assay type: in vitro ADME, rat (Sprague-Dawley); details: 1.0E-06 M
Procedure: The in vitro metabolism of […], as compared to known reference compounds, was analyzed using liver microsomes from human, dog (Beagle), rat (Sprague-Dawley) and mouse (CD-1). […] Results are from two independent tests.

[4] = tested on: MDA-MB-468; assay: MTS assay, MDA-MB-468; assay type: cell-based
Procedure: (§1) Cell proliferation was analyzed using MTS assay.

[5] = tested on: RET, mTOR, 4E-BP1, P70S6 kinase, akt, pERK in medullary thyroid cancer cells; assay: Mechanistic pathway protein levels in medullary thyroid cancer cells; assay type: cell-based; details: 24 hours; 0.5, 1, 3, and 6 μM
Procedure: Additional analysis of X005, X032 and X033 was carried out in medullary thyroid cancer cells. […] Therefore, this analysis indicates the importance of this double bond in the A-ring to anti-cancer activity.

[6] = tested on: MDA-MB-231 cells; assay: Clonogenic assay, MDA-MB-231; assay type: cell-based; details: 1-2 μM; treated 24 hours, cultured two weeks
[7] = tested on: BT20; assay: MTS assay, BT20; assay type: cell-based
Procedure: as §1

[8] = tested on: Salmonella typhimurium TA98; assay: Cytotoxicity in tester strain TA98 without S9; assay type: cell-based
[9] = tested on: MDA-MB-231 cells; assay: Annexin V-FITC/Propidium Iodide apoptosis, MDA-MB-231; assay type: cell-based
Source text: Therefore, this cell line was not very sensitive to X001 in this assay.

[10] = tested on: DRO81-1 medullary thyroid cancer cells; assay: PARP cleavage, DRO81-1; assay type: cell-based
[11] = tested on: heat shock factor (HSF) / HSE-luciferase in Hs766T cells; assay: HSE-luciferase reporter, Hs766T; assay type: cell-based; design: dose or concentration left out as unconfirmed; details: heat shock 42° C. 30 minutes; recovery 8 hours
Procedure: To monitor the activation of heat shock factor (HSF) and heat shock-mediated signal transduction pathways, Hs766T cells were transfected with a HSE-luciferase construct, then treated with 3 mM of the selected withanolides for 8 hours. The cells were heat shocked at 42° C. for 30 minutes and allowed to recover at 37° C. for 8 hours. Cells were lysed and luciferase activity was measured on a plate reader.

[12] = tested on: hsf1 and client proteins of Hsp90 in Hs766T cells; assay: Western blot, Hs766T; assay type: cell-based
[13] = tested on: Hsp70 and Hsp40 in Hs766T cells; assay: Heat shock-induced Hsp70 and Hsp40 protein levels, Hs766T; assay type: cell-based; details: pretreatment 8 hours; 30-minute heat shock at 42° C.; further 8 hours
Procedure: For this analysis, Hs766T cells were incubated with X003 for 8 hours, followed by a 30-minute heat shock at 42° C. The cells were further incubated for 8 hours and Hsp70 and Hsp40 levels were determined.

Structure (SMILES): CC1=C(CO)C(=O)O[C@@H]([C@@H](C)C2CC[C@H]3[C@@H]4C[C@H]5O[C@]56[C@@H](O)C=CC(=O)[C@]6(CO)[C@H]4CC[C@]23C)C1 (stereo partly shown) [Compound X001]
- levels of BRCA-1, HSF1, mutant p53, Notch1 and Jagged1 ([1]; 1, 2, 4, or 8 μM): decreased
- caspase-3 activation (concentration) ([1]; tested 1, 2, 4, or 8 μM): 4 to 8 µM
- cell cycle effect [2]: G2/M arrest
- Mean % Parent Compound Remaining [3]: 31%
- Log ECF [4]: 0.32
- pERK levels [5]: increased at higher concentrations
- total and phosphorylated protein levels of RET, mTOR, P706S kinase [5]: down-regulated in a dose-dependent manner
- colony formation [6]: strongly inhibited
- Log ECF [7]: 0.91
- Cytotoxicity (% of Control) ([8]; 1.0E−04 M): 98 % of Control
- Cytotoxicity (% of Control) ([8]; 1.0E−05 M): 86 % of Control
- Cytotoxicity (% of Control) ([8]; 1.3E−06 M): 89 % of Control
- Cytotoxicity (% of Control) ([8]; 2.5E−05 M): 86 % of Control
- Cytotoxicity (% of Control) ([8]; 2.5E−06 M): 87 % of Control
- Cytotoxicity (% of Control) ([8]; 5.0E−05 M): 85 % of Control
- Cytotoxicity (% of Control) ([8]; 5.0E−06 M): 86 % of Control
- Cytotoxicity (% of Control) ([8]; 6.3E−07 M): 95 % of Control
- concentration needed to induce apoptosis [9]: at least 4 μM
- cleavage of PARP starting at (concentration) [10]: 500 nM

Structure (SMILES): CC(=O)OCC1=C(C)C[C@H]([C@@H](C)C2CC[C@H]3[C@@H]4C[C@H]5O[C@]56[C@@H](OC(C)=O)C=CC(=O)[C@]6(COC(C)=O)[C@H]4CC[C@]23C)OC1=O (stereo partly shown) [Compound X003, 4,19,27-triacetyl X001]
- heat shock-induced increase in luciferase activity [11]: substantially reduced
- stress and client protein response (western blot) [12]: induced oxidative and proteotoxic stress, while depleting hsf1 and client proteins of Hsp90
- heat shock-induced Hsp70 and Hsp40 protein levels [13]: failed to block

From patent US8598339B2, “Withanolide isolated from Physalis longifolia and analogs and methods of use thereof” (University of Kansas, priority 2011, dated 2013)
